Source: ChEMBL document CHEMBL1201862, “PubChem BioAssay data set” (2004)
Activity calls are given as the source filed them.

What was measured:
[1] = molecular target: T1, Corticotropin-releasing factor receptor 2/Corticotropin-releasing factor-binding protein (Homo sapiens, UniProt P24387+Q13324); experiment: activators of CRF receptor 2 with binding protein – uHTS hits, confirmation (AID 602473); assay type: functional; settings: read-out: EC50_Mean
T1 sequence (Q13324 whole entry): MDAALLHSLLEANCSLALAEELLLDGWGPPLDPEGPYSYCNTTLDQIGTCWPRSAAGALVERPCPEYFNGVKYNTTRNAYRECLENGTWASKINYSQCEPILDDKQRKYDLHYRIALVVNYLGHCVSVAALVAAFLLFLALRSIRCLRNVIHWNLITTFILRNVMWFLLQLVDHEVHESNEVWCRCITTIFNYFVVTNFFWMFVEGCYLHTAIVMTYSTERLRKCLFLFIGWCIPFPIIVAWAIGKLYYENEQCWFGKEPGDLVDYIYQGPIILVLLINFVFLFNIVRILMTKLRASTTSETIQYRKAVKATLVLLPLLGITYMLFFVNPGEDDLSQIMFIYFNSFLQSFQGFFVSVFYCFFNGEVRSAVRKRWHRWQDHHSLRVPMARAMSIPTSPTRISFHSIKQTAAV
T1 sequence (P24387 whole entry): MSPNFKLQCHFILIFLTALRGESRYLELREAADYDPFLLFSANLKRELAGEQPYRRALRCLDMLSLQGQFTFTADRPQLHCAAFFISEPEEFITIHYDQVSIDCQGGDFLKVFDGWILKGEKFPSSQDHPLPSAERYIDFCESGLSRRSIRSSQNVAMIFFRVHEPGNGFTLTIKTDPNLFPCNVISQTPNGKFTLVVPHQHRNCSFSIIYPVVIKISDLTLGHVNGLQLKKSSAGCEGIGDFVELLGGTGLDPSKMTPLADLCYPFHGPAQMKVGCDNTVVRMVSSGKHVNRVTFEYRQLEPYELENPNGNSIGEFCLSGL

[2] = HEp-2 cell cytotoxicity, dose response, cytotoxicity control for RSV inhibitor project, HTS (AID 2410); assay type: functional; settings: human respiratory syncytial virus
Cytochrome P450 2C9 = Cytochrome P450 2C9 (Homo sapiens, UniProt P11712)
Cytochrome P450 1A2 = molecular target: T2, Cytochrome P450 1A2 (Homo sapiens, UniProt P05177);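 also: PubChem cytochrome P450 panel assay, CYP1A2 panel member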
T2 sequence (P05177 whole entry): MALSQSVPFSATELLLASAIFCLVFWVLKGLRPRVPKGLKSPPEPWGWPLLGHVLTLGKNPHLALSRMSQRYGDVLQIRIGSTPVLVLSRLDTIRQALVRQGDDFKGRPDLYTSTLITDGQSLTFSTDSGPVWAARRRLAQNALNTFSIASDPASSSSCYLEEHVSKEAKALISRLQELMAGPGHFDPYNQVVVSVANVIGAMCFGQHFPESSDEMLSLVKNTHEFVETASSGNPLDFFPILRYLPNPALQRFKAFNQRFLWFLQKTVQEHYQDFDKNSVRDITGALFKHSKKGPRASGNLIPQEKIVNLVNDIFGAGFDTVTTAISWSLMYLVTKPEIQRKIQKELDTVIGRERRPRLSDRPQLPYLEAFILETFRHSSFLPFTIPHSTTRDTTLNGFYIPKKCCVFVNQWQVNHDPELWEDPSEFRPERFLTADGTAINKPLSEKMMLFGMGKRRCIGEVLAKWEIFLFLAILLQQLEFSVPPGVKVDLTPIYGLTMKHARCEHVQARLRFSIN

[3] = molecular target: T3, Rac GTPase-activating protein 1 (Homo sapiens, UniProt Q9H0H5); experiment: MgcRacGAP GTPase-activating activity inhibitors, confirmation, biochemical, ADP Hunter fluorescence, primary and confirmatory (AID 624330); assay type: functional
T3 sequence (Q9H0H5 whole entry): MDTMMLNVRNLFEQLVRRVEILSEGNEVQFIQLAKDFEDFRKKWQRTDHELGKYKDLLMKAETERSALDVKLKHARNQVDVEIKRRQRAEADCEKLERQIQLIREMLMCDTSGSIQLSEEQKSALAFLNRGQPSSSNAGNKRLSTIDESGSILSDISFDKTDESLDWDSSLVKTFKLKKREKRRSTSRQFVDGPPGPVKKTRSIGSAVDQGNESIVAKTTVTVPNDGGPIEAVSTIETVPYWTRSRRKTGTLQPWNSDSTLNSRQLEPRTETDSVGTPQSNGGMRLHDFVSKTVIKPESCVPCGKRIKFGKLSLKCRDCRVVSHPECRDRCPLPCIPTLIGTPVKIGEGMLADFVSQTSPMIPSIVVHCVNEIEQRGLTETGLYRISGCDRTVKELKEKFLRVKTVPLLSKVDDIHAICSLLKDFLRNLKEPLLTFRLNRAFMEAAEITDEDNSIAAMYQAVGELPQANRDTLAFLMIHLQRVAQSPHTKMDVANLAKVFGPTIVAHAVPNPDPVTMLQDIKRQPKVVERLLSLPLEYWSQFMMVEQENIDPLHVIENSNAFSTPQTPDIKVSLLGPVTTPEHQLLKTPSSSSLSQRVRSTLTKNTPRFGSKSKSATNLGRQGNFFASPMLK

[4] = molecular target: T4, Replicative DNA helicase DnaB (Mycobacterium tuberculosis, UniProt P9WMR3); experiment: DnaB intein splicing inhibitors, dose response, biochemical, cell-free fluorescence (AID 449749); assay type: functional
T4 sequence (P9WMR3 whole entry): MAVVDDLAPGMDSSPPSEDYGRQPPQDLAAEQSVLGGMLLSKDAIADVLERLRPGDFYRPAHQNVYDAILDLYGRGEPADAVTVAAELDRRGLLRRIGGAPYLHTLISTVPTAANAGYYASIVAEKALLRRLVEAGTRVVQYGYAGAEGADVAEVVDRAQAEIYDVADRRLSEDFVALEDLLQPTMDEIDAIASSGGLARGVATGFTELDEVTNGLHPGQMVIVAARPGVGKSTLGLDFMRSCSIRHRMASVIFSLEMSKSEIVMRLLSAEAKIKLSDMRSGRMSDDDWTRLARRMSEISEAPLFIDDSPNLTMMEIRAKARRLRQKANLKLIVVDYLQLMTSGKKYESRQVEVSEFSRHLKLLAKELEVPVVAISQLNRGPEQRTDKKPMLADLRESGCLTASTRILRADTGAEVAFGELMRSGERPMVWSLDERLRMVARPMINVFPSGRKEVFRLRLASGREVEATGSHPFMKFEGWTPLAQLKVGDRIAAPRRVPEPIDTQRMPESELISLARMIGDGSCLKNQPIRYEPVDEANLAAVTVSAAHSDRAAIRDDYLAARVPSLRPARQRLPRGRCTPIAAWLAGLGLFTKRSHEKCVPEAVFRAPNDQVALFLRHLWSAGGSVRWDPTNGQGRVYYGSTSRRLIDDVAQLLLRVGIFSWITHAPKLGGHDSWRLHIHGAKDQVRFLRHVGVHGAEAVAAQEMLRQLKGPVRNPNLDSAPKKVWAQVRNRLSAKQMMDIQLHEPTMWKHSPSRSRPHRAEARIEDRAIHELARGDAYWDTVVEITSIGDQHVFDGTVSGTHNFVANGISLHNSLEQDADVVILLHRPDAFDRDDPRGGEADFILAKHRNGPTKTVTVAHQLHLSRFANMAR

Protein RecA = molecular target: T5, Protein RecA (Mycobacterium tuberculosis, UniProt P9WHJ3); experiment: Fluorescence Cell-Free Homogeneous Dose Retest to Identify Inhibitors of RecA-Intein Splicing Activity. [Related pubchem assays (depositor defined):AID2097, AID2223, AID489010, AID492950]; assay type: functional
T5 sequence (P9WHJ3 whole entry): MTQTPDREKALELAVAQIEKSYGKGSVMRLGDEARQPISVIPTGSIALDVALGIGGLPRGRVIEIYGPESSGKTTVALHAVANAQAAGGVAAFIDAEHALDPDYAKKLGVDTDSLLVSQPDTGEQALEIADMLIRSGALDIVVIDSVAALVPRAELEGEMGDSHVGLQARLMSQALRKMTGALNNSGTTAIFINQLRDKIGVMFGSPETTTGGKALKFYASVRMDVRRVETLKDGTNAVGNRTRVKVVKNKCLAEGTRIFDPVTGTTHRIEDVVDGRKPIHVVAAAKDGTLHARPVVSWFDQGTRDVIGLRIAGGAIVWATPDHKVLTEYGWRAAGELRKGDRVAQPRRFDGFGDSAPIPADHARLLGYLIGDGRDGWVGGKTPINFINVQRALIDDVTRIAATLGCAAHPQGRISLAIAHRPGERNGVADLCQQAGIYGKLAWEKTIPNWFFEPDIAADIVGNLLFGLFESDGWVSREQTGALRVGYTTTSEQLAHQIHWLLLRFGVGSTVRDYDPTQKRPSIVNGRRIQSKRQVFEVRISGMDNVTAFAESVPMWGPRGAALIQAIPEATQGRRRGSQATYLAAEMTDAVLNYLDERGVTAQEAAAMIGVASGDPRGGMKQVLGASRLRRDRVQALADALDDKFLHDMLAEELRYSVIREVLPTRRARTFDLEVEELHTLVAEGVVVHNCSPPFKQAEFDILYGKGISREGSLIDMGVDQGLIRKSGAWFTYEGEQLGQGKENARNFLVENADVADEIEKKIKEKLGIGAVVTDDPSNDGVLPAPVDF

Cytochrome P450 2C19 = Cytochrome P450 2C19 (Homo sapiens, UniProt P33261); experiment: Cytochrome panel assay with activity outcomes. Panel member name: p450-cyp2c19 Compounds with AC50 equal or less than 10 uM are considered active; assay type: functional; settings: read-out: AC50
[5] = molecular target: T6, RNA-binding protein pos-1 (Caenorhabditis elegans, UniProt G5EF15); experiment: inhibitors of POS-1/mex-3 RNA binding, dose response, biochemical, fluorescence polarization (AID 1964);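 also: purified POS-1 fused to maltose binding protein made in E. coli; potency of compounds blocking POS-1 binding to fluorescent RNA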
T6 sequence (G5EF15 whole entry): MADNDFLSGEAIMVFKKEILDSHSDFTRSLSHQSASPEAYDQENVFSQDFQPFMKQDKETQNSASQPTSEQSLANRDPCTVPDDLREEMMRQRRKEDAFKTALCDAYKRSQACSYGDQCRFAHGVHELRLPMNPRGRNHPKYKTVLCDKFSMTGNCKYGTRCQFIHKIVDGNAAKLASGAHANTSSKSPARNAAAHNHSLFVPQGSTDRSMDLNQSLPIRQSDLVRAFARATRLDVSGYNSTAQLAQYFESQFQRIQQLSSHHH

Sequence of Cytochrome P450 2C9 (P11712 whole entry): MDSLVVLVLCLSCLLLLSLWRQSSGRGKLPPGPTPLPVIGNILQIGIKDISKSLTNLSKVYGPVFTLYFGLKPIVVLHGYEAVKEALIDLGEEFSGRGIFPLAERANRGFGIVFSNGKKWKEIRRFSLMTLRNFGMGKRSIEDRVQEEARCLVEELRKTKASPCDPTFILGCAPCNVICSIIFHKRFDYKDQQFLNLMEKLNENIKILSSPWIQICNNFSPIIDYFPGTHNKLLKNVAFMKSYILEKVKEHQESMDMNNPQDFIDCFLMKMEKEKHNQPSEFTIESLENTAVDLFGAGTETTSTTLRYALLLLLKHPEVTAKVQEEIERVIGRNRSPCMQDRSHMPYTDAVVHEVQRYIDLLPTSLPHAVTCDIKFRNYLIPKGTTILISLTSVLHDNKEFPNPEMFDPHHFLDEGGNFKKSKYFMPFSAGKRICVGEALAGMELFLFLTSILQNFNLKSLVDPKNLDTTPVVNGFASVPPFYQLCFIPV
Sequence of Cytochrome P450 2C19 (P33261 whole entry, the tested form may be a part): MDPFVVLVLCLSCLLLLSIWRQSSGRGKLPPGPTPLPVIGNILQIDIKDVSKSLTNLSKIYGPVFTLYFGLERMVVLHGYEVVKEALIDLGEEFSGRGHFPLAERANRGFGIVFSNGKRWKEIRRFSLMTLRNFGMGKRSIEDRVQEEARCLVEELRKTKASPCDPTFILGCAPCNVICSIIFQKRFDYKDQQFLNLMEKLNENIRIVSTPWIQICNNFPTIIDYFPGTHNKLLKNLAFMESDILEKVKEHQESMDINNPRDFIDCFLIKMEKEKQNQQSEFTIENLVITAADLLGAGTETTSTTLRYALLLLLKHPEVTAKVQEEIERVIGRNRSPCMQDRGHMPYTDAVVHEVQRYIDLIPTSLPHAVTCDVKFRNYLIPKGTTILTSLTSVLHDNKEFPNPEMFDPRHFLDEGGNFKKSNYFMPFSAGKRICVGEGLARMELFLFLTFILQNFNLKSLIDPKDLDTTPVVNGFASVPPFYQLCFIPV

Compound	CC50 [2]	AC50 (Cytochrome P450 2C9)	further results
CC(=O)N1CCc2ccc(S(=O)(=O)N3CCN(C)CC3)cc21			EC50 [1]: > 53 µM (inactive)
CCn1nc(C(=O)Nc2ccccc2N2CCCC2)c2ccccc2c1=O	> 50 µM (active)		
O=S(=O)(c1ccc2c(c1)OCCO2)N1CCN(c2cccc(Cl)c2)CC1	34.9 µM (active)		
CCCCc1ccc(-c2csc(/C(C#N)=C/c3ccc(C)o3)n2)cc1		3.16 µM (inconclusive)	AC50 (Cytochrome P450 1A2): 2 µM (inconclusive)
Cc1nc2sccn2c(=O)c1S(=O)(=O)Nc1cccc(Cl)c1C			EC50 [1]: > 53 µM (inactive)
COc1ccccc1CNC(=O)CCCn1nc(C)c2c(C)n(-c3ccc(C)cc3)nc2c1=O	32 µM (active)		
CCc1sc(C(=O)Nc2ccc3c(c2)OCCO3)cc1Br	10.7 µM (active)		
Oc1ccc(C[C@H]2CNCCN2CCC23CC4CC(CC(C4)C2)C3)cc1	14.2 µM (active)		
COc1cc(OC)cc(C(=O)Nc2ccc(-c3nc4ccccc4o3)c(O)c2)c1	17.6 µM (active)		
O=C(Nc1cccc(S(=O)(=O)N2CCCCC2)c1)c1ccccc1NS(=O)(=O)c1ccc(F)cc1			EC50 [1]: > 53 µM (inactive)
Nc1ccc2[nH]c(CCCCc3nc4ccccc4[nH]3)nc2c1			IC50 [3]: 57.3 µM (active); AC50 [4]: > 380 µM (inactive); EC50 (Protein RecA): 16.9 µM (active)
CCOc1cc(C=C2C(=O)c3ccccc3C2=O)ccc1OCC(=O)Nc1ccc(C)cc1			EC50 [1]: > 53 µM (inactive)
COc1ccc(/C(O)=C/c2nc3ccccc3n(-c3ccccc3)c2=O)cc1			EC50 [1]: 7.85 µM (active)
O=C(O)[C@@H](S)[C@H](S)C(=O)O		3.98 µM (inconclusive)	
CCOc1cc(N(CC)CC)ccc1/C=C(/C#N)c1nc2ccccc2[nH]1	21.4 µM (active)		
COc1cc(CC(=O)OC2CCOC2=O)cc(OC)c1OC (configuration not stated)		39.8 µM (inconclusive)	AC50 (Cytochrome P450 2C19): 8.91 µM (inconclusive)
Cc1oc(-c2ccccc2)cc1C(=O)Nc1ccc(N(C)C)cc1		25.1 µM (inconclusive)	IC50 [3]: 62.3 µM (active)
Cc1cccc(N2C(=O)/C(=C/c3ccc(N4CCN(C)CC4)o3)C(=O)NC2=S)c1C			EC50 [5]: > 300 µM (inconclusive)
CCNC(=O)CC1C(=O)N(c2ccc(F)cc2)C(=O)N1CCc1ccc(OC)cc1 (configuration not stated)		0.282 µM (inconclusive)	AC50 (Cytochrome P450 2C19): 8.91 µM (inconclusive)
C=CCn1c(=O)c2ccccc2n2c(SCC(=O)N3CCCc4ccccc43)nnc12			EC50 [1]: > 53 µM (inactive)
COc1ncc2nc(-c3cccs3)c(=O)n(C)c2n1		12.6 µM (inconclusive)	
CCOP(=O)(OCC)c1nc(/C=C/c2ccccc2)oc1NCc1ccccc1		4.47 µM (inconclusive)	AC50 (Cytochrome P450 1A2): 15.8 µM (inconclusive)
O=C(CCCN1C(=O)c2cccc3cccc(c23)C1=O)N1CCN(Cc2ccc3c(c2)OCO3)CC1	43.7 µM (active)		
CCOc1ccc2nc(NC(=O)COc3ccc(N(C)S(=O)(=O)c4ccc(C)cc4)cc3)sc2c1	1.78 µM (active)		
Cc1cc(C)c(NC(=O)C[S+]([O-])CC(=O)NCCCc2ccccc2)c(C)c1 (configuration not stated)		28.2 µM (inconclusive)	
COC(=O)C1=C(c2ccc(C(C)=O)cc2)C[C@@H]2CC[C@H]1N2C(=O)NCc1ccc(C(F)(F)F)cc1			EC50 [1]: 4.94 µM (active)
CCN(CC)c1ccc(/C=N/c2sc3c(c2C#N)C2CCN3CC2)c(O)c1	6.56 µM (active)		
CCc1cc2c(O)ncnc2s1		28.2 µM (inconclusive)	AC50 (Cytochrome P450 1A2): 20 µM (inconclusive)
Nc1ccc(S(=O)(=O)Nc2cnc3ccccc3n2)cc1 [SULFAQUINOXALINE SODIUM]		10 µM (inconclusive)	
